Experimental data: US6559158B1, “Use of methylnaltrexone and related compounds to treat chronic opioid use side affects” (UR Labs, Inc., priority 1997, dated 2003)

Test system: morphine-induced changes in oral-cecal transit time
Test: Example 4: morphine-induced delay of oral-cecal transit time in subjects given opioids non-chronically
Assay type: in vivo, human
Settings: placebo plus 0.05 mg/kg morphine, 12 subjects, mean±SD; baseline 104.6±31.1; p<0.01
Protocol: Sessions were separated by at least 1 week. Each session lasted approximately 7 hours, and the subjects received one of three injections: (1) placebo plus placebo, (2) placebo plus 0.05 mg/kg morphine, or (3) 0.45 mg/kg methylnaltrexone plus 0.05 mg/kg morphine. Injection I was given at the first session, and the subjects were blinded to the medication. Injections 2 and 3 were given in a random order, and the subjects and observers were blinded to the medication. Injection assignments were prepared by random selection on a computer and were sealed in envelopes.
After completion of the above three injections, we asked six of the subjects, beginning with those who had completed the study last, to return for a fourth injection (0.45 mg/kg methylnaltrexone plus 0.1 mg/kg morphine). This was done to evaluate the effects of methylnaltrexone with a higher does of morphine.
Results of the hydrogen breath test after different injections were analyzed with the use of the Wilcoxon matched-pairs signed-rank test, with p<0.05 considered to be statistically significant.

Work on `CN1CC[C@]23c4c5ccc(O)c4O[C@H]2[C@@H](O)C=C[C@H]3[C@H]1C5.O=S(=O)(O)O` [Morphine, morphine sulfate] yielded an oral-cecal transit time of 163.3 ± 39.8 min.
